Reference: patent publication US20040049072A1, “RXR modulators with improved pharmacologic profile” (priority 1999, published 2004)
“Also recorded” adds a separate entry of the source. Where two headings read alike, the source gives them in different places.

How the values were obtained:
RXRα = target: T1, RXRα (Homo sapiens, UniProt P19793); assay: RXRα binding (competition with tritiated LGD1069)
T1 sequence (P19793 1-462): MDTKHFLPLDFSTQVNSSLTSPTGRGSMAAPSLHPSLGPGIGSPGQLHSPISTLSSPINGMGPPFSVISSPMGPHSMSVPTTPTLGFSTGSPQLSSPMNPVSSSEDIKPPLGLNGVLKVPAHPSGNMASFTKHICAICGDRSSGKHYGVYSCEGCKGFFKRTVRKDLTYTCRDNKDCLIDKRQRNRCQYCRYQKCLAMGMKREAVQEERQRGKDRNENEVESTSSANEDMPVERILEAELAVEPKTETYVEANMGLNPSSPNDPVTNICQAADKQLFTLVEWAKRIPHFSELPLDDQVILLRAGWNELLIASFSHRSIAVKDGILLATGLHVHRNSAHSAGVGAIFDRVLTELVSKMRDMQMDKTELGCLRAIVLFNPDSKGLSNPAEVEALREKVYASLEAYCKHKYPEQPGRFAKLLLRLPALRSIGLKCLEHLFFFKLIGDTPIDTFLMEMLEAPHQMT
Procedure: Non-specific binding was defined as that binding remaining in the presence of 500 nM of the appropriate unlabelled compound. At the end of the incubation period, bound ligand was separated from free. The amount of bound tritiated retinoid was determined by liquid scintillation counting of an aliquot (700 μL) of the supernatant fluid or the hydroxylapatite pellet.
After correcting for non-specific binding, IC50 values were determined. […] The IC50 value was determined graphically from a log-logit plot of the data. The Ki values were determined by application of the Cheng-Prussof equation to the IC50 values, the labeled ligand concentration and the Kd of the labeled ligand.

RXRα:PPARγ heterodimer = target: T2, RXRα:PPARγ heterodimer (Homo sapiens, UniProt P19793); assay: RXR:PPARγ heterodimer co-transfection assay in CV-1 cells; type: cell-based; details: for PPARγ CV-1 (%) Synergy: maximal response in presence of 100 nM BRL49653 relative to BRL49653 alone; for RXRα:PPARγ Heterodimer Cotransfection Assay Synerg Efficacy (%): maximal response in presence of 100 nM BRL relative to response of BRL alone; for RXRα:PPARγ Heterodimer Cotransfection Assay Agonist Efficacy (%): maximal response relative to response of BRL 49653; for activity on the RXRα:PPARγ heterodimer in combination with the PPARγ ligand: synergy mode, with BRL 49653
T2 construct: expressed in transfected cells; host or cells: CV-1 cells
T2 sequence (P19793 1-462): T1 sequence (P19793 1-462)
T2 sequence (P37231 1-505 partner): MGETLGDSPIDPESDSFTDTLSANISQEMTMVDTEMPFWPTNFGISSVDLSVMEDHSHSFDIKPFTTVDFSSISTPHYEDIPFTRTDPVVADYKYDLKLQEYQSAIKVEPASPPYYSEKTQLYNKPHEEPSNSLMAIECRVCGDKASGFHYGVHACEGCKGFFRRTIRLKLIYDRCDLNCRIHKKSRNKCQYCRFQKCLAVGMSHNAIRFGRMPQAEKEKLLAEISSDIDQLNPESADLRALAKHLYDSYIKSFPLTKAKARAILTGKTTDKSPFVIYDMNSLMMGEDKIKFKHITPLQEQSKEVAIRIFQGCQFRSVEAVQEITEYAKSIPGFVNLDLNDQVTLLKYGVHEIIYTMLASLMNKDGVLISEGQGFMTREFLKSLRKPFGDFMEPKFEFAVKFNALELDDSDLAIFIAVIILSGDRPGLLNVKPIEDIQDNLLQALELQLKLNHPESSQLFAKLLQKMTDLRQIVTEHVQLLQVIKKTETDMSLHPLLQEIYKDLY
Procedure: (§1) For determination of agonist activity in the context of the RXR:RAR heterodimer or the RXR:PPARγ heterodimer, media containing compounds of the present invention in concentrations ranging from 10^−10 to 10^−5 M were added to the cells.
(§2) Compounds of the present invention were also tested for the ability to synergize with a PPARγ agonist in the context of an RXR heterodimer. […] Efficacy of the compounds of the present invention in the agonist and synergy assays was calculated as the maximum response obtained over the range of the dose response curve relative to the maximum response obtained by the reference agonist. Antagonist efficacy was determined as a function (%) of maximal inhibition.
To examine the effects of the compounds of the present invention on the transcriptional properties of the RXR:PPARγ, a heterodimer cotransfection assay as described above was employed.

db/db mouse = db/db mouse study (rodent model of Type II diabetes); details: for db/db mouse Glu. (D 14): plasma glucose, 100 mg/kg daily oral gavage; for db/db mouse Glu. (D 14) / db/db mouse Trigs. (D 14): day 14; for effect on the thyroid hormone axis / effect on triglycerides / insulin sensitizing activity / effect on glucose / insulin sensitizing activity with thyroid axis suppression and triglyceride elevations: rodent models of Type II Diabetes
Procedure: Mice (obtained from Jackson Laboratory), ZDF rats (obtained from Genetic Models Inc.) and fa/fa rats (obtained from either Charles River, or Harlan) were maintained on 12-hour light/dark cycle. […] Compounds were administered at the specified doses by oral gavage on the morning of each day of any experiment. Blood samples were obtained 3 hours after dosing from fed animals under anesthesia and collected into heparinized capillary tubes from the tail vein.
RXRα:RAR heterodimer = target: T3, RXRα:RAR heterodimer (Homo sapiens, UniProt P19793); assay: RXR:RAR heterodimer co-transfection assay in CV-1 cells; type: cell-based
T3 construct: expressed in transfected cells; host or cells: CV-1 cells
T3 sequence (P19793 1-462): T1 sequence (P19793 1-462)
Procedure: as §1, §2
However, when RAR is occupied, typical RXR agonists activate the heterodimer. […] To examine the effects of the compounds of the present invention on the transcriptional properties of the RXR:RAR heterodimer, a heterodimer cotransfection assay as described above was employed.

[1] = Table 3, mean of n > 3, read-out: RXRα Binding Ki
[2] = from IC50 by Cheng-Prussof equation, tritiated LGD1069, read-out: Bind RXRα Ki
[3] = % correction relative to lean values
[4] = plasma triglycerides, % correction relative to lean values, NC = no change
[5] = CV-1, read-out: RXR:RAR CV-1 (%) Ag.
[6] = CV-1, read-out: RXRα:RAR Heterodimer Cotransfection Assay Agonist Efficacy (%)
[7] = maximal repression (100%) in presence of 10 nM TTNPB
[8] = relative to maximal repression (100%) in presence of 10 nM TTNPB

Compound | Ki (RXRα; [1]) | Ki (RXRα; [2]) | activity on the RXRα:PPARγ heterodimer, tested alone (RXRα:PPARγ heterodimer) | PPARγ CV-1 (%) Synergy (RXRα:PPARγ heterodimer) | RXRα:PPARγ Heterodimer Cotransfection Assay Synerg Efficacy (%) (RXRα:PPARγ heterodimer) | RXRα:PPARγ Heterodimer Cotransfection Assay Agonist Efficacy (%) (RXRα:PPARγ heterodimer) | activity on the RXRα:PPARγ heterodimer in combination with the PPARγ ligand (RXRα:PPARγ heterodimer) | db/db mouse Glu. (D 14) (db/db mouse; [3]) | db/db mouse Trigs. (D 14) (db/db mouse; [4]) | effect on the thyroid hormone axis (db/db mouse) | effect on triglycerides (db/db mouse) | insulin sensitizing activity / effect on glucose (db/db mouse) | Emax (RXRα:RAR heterodimer; [5]) | Emax (RXRα:RAR heterodimer; [6]) | agonist activity on the RXR:RAR heterodimer (RXRα:RAR heterodimer; compound alone) | RXR:RAR CV-1 (%) Antag. (RXRα:RAR heterodimer; [7]) | RXRα:RAR Heterodimer Cotransfection Assay Antagonist Efficacy (%) (RXRα:RAR heterodimer; [8]) | insulin sensitizing activity with thyroid axis suppression and triglyceride elevations (db/db mouse) | antagonist activity on the RXR:RAR heterodimer (RXRα:RAR heterodimer; antagonist assay) | also measured
COc1c(/C(C)=C/C=C/C(C)=C/C(=O)O)cc(C(C)(C)C)cc1C(C)(C)C [Compound L1] | 1.1 nM | 1.1 nM | both agonist and synergistic activity similar to that seen with LGD1069 and LG100268 | 166% | 166% | 59% | both agonist and synergistic activity similar to that seen with LGD1069 and LG100268 | 96% | 54% | suppress the thyroid hormone axis | raise triglycerides | efficacious insulin sensitizers | 21% | 21% | weak agonist activity alone | 19% | 19% | – | – | db/db mouse Trigs. (D3) (db/db mouse; plasma triglycerides, % correction relative to lean values, day 3, NC = no change): 300%
CCOc1c(/C(C)=C/C=C/C(C)=C/C(=O)O)cc(C(C)(C)C)cc1C(C)(C)C [Compound L2] | 13 nM | 13 nM | partial agonist alone | 69% | 69% | 14% | stronger activity in combination with the PPARγ ligand | 91% | 116% | suppresses thyroid hormone axis | – | – | 6% | 6% | not active in the RXR:RAR assay | 49% | 49% | – | – | db/db mouse T4 (D 3) (db/db mouse; total T4 as % of obese control values, day 3, NC = no change): 45%
CCCOc1c(/C(C)=C/C=C/C(C)=C/C(=O)O)cc(C(C)(C)C)cc1C(C)(C)C [Compound L3] | 1.1 nM | 1 nM | only weakly active alone | 25% | 25% | 6% | active in the presence of the PPARγ ligand | 75% | 133% | absence of detectable suppression of the thyroid hormone axis; also recorded: does not | – | – | 5% | 5% | not active as RXR:RAR agonists | 84% | 84% | maintain the desirable insulin sensitizing activity and eliminate or reduce both the suppression of the thyroid axis and triglyceride elevations; also recorded: maintain the desirable insulin sensitizing activity and minimize both the suppression of the thyroid axis and triglyceride elevations | significant RXR:RAR antagonist activity | RXR:RAR antagonist activity relative to L2 (RXRα:RAR heterodimer; comparison of L3 with L2): approximately twice the RXR:RAR antagonist activity as L2
CCCCOc1c(/C(C)=C/C=C/C(C)=C/C(=O)O)cc(C(C)(C)C)cc1C(C)(C)C [Compound L4] | 0.9 nM | 1 nM | only weakly active alone | 20% | 20% | 3% | active in the presence of the PPARγ ligand | 50% | 105% | absence of detectable suppression of the thyroid hormone axis | – | – | 2% | 2% | not active as RXR:RAR agonists | 88% | 88% | maintain the desirable insulin sensitizing activity and eliminate or reduce both the suppression of the thyroid axis and triglyceride elevations; also recorded: maintain the desirable insulin sensitizing activity and minimize both the suppression of the thyroid axis and triglyceride elevations | significant RXR:RAR antagonist activity | –
CCCCCCCOc1c(/C(C)=C/C=C/C(C)=C/C(=O)O)cc(C(C)(C)C)cc1C(C)(C)C [Compound L5] | 0.6 nM | 0.6 nM | not active as an agonist | 6% | 6% | 4% | not active as an agonist | 0% | – | no effect | no effect | no effect | – | – | not active as RXR:RAR agonists | 68% | 68% | – | significant RXR:RAR antagonist activity | Emax (RXRα:RAR heterodimer; CV-1; read-out: RXR:RAR CV-1 (%) Ag.): 5%; Emax (RXRα:RAR heterodimer; CV-1; read-out: RXRα:RAR Heterodimer Cotransfection Assay Agonist Efficacy (%)): 5%
